What was measured:
mice = test: antihypoxia test: survival duration of mice in normobaric atmosphere of 96% nitrogen and 4% oxygen; type: in vivo
Text: The antihypoxia test measures the survival duration of mice in a normobaric atmosphere consisting of 96% nitrogen and 4% oxygen, at ambient temperature. The mice are considered dead when they stop visible aspiration. The test indicates potential clinical utility in situations of central nervous system hypoxia, such as occurs following stroke, cardiac arrest, and traumatic accidents.

Estimated LD50 = type: in vivo; details: ip
in vivo = details: ip

O=C1N(c2cccc(Cl)c2)N=C2C3CC4CC(C3)CC12C4 [3-(3-Chlorophenyl)-3,4-diazatetracyclo[6.3.1.1^6,10.0^1,5]tridec-4-en-2-one]
Antihypoxia, Survial Minutes, Compound (mice; 2.5 mg/kg ip, N=10, ambient temp., control 8.7, P NS (P > 0.05)): 8.0 min
Antihypoxia, Survial Minutes, Compound (mice; 5 mg/kg ip, N=10, ambient temp., control 8.7, P <0.05): 10.5 min
Antihypoxia, Survial Minutes, Compound (mice; 10 mg/kg ip, N=10, ambient temp., control 6.9, P <0.05): 9.5 min
Antihypoxia, Survial Minutes, Compound (mice; 25 mg/kg ip, N=5, ambient temp., control 8.7, P 0.075): 13.0 min
Antihypoxia, Survial Minutes, Compound (mice; 25 mg/kg ip, N=10, ambient temp., control 6.9, P <0.05): 12.6 min
prolongation of survival of mice (in words) (mice; 25 mg/kg, intraperitoneally): prolonged the survival of mice by a very significant margin
Estimated LD50 (Estimated LD50): > 100 mg/kg
TD50 (in vivo): 25 mg/kg

— patent publication US4732909A, “3-(3-halophenyl-3,4-diazatetracyclo-[6.3.1.1^6,10.0^1,5 ]tridec-4-en-2-one compounds and use thereof to treat hypoxia” (Pennwalt Corporation, priority 1987, dated 1988)
